Laboratory results as given in US20160030365A1, “PHARMACEUTICAL OR COSMETIC COMPOSITION SUITABLE TO PRESERVE EPITHELIAL STEM CELLS” (GIULIANI S.P.A., priority 2013, published 2016).

Tested on: keratin K15 (cytokeratin 15, CK15) of human epithelial hair follicle stem cells
Assay: Quantitative immunohistochemistry for keratin K15 in organ-cultured human hair follicles
Type: cell-based
Conditions: for relative intensity of immunohistochemistry of keratin K15: microdissected human anagen VI hair follicles in organ culture, 6 days, relative intensity of the vehicle=1
Description: The scope of the study is to determine the effects of N^1-methyl spermidine, a compound of formula (I) of this invention, on the biomarker keratin K15 (cytokeratin 15, CK15) of human epithelial hair follicle stem cells (heHFSCs). As reference on this point in the literature we can quote Kloepper JE et al. (2008), Immunophenotyping of the human bulge region: the quest to define useful in situ markers for human epithelial hair follicle stem cells and their niche. Exp Dermatol 17: 592-609.
Scalp samples were collected from two women who were submitted to surgical lifting, after obtaining their informed consent. Experiments were performed in compliance with the Helsinki principles, with the Ethics Committee's approval. Details of samples are described in Table 1 below.
J Dermatol Sci 7: SuppIS 55-72.
N^1-methyl-spermidine of the invention or spermidine or the vehicle were changed every 48 hours with the culture medium. A summary of the study procedure is presented in Table 2 below, in which N^1-methyl spermidine, the compound of formula (II) of this invention, used in the test at concentrations of 0.5 and 1.5 μM is the active substance', while spermidine was used as a control at the concentration of 0.5 μM.
The tyramide signal amplification method was used to assess the expression of keratin K15, as described in the abovementioned paper by Kloepper et al. (2008). The cryosections fixed in acetone were washed thrice for 5 minutes using the buffer (0.1 mol/L Tris-HCl, pH 7.5, containing 0.15 mol/L NaCl and 0.05% Tween 20) TNT (Tris-HCl NaCl Tween). Later, peroxidase was inhibited by washing with 3% H2O2 in phosphate buffered saline (PBS) for 15 min. Preincubation was performed with avidin and biotin for 15 minutes, and with 5% normal goat serum in TNT for 30 minutes with intermediate lavage. The Mouse Anti-Human K15 antibody (clone LHK15, Chemicon, Billerica, USA) was diluted in TNT and incubated for one night at 4° C. This incubation period was followed by a second incubation period with a secondary biotinylated Goat Anti-Mouse antibody (1:200 in TNT) for 45 minutes in RT. […] Immunohistochemistry intensity was quantified with the ImageJ software (National Institutes of Health). Stain intensity of the defined reference regions of the follicle was measured and compared between the control groups and groups treated with N^1-methyl spermidine at the concentrations of 0.5 and 1.5 μM, or with spermidine 0.5 μM. • Statistical Analysis
The statistical analysis was performed using a two tailed Student t-test for samples that were not coupled. To group the two experiments, each treatment group was compared with the control group (mean value), and the relative variation in expression was calculated.

Row | Compound | relative intensity of immunohistochemistry of keratin K15 (0.5 μM) | inductive effect towards keratin K15 compared with an equal concentration of spermidine (0.5 μM vs spermidine 0.5 μM) | relative intensity of immunohistochemistry of keratin K15 (1.5 μM)
1 | NCCCCNCCCN [spermidine, reference compound] | 1.12 | – | –
2 | CN(CCCN)CCCCN [N^1-methyl spermidine, N-(3-aminopropyl)-N^1-methyl-1,4-butandiamine] | 1.739 | higher than that of an equal concentration of 0.5 μM of spermidine | 1.806
